Source: patent US8470812B2, “Substituted benzo-pyrimido-tetrazolo-diazepine compounds” (ArQule, Inc., priority 2009, dated 2013)

Legend:
DLD-1 cancer cells = test: MTS assay, cell growth inhibition; type: cell-based; settings: DLD-1 cells, 72 h incubation; test concentration not given
Protocol: (§1) Cells were maintained at 37° C., 5% CO2 in DMEM media supplemented with 1% fetal bovine serum, penicillin/streptomycin and fungizone (Invitrogen). Cells were seeded into 96-well tissue culture plates at 3000 per well and cultured at 37° C. for 18 hours. Test compounds were dissolved and diluted to 300× in DMSO then diluted 1:40 in DMEM. Cells were incubated with test compounds for 72 hours followed by incubation with tetrazolium compound (3-(4,5-dimethylthiazol-2-yl)-5-(3-carboxymethoxyphenyl)-2-(4-sulfophenyl)-2H-tetrazolium, inner salt; MTS) and the electron coupling reagent, phenazine methosulfate (PMS) for 4 hours. […] The ability of compounds to inhibit cell growth in this assay is correlated with the reduction of dehydrogenase enzyme activity found in metabolically active cells. The measurement of the absorbance of the formazan was assessed using a Victor (Perkin Elmer) microplate reader at 492 nm. The calculated IC50 value is the concentration of the test compound that causes a 50% decrease in the absorbance. Selected compounds have been tested in DLD-1 and MDA-MB-231 cancer cells.

MDA-MB-231 cancer cells = test: MTS assay, cell growth inhibition; type: cell-based; settings: MDA-MB-231 cells, 72 h incubation; test concentration not given
Protocol: as §1

Structure (SMILES) | DLD-1, MTS, 72 h (% Inhibition) (DLD-1 cancer cells) [%] | MDA-MB-231, MTS, 72 h (% Inhibition) (MDA-MB-231 cancer cells) [%]
c1ccc2c(c1)Nc1nc(NC3CCCC3)ncc1-c1nnnn1-2 [Compound 45, N-cyclopentyl-9H-pyrimido[5,4-c]tetrazolo[1,5-a][1,5]benzodiazepin-11-amine] | 95 | 76
CC(Nc1ncc2c(n1)Nc1ccccc1-n1nnnc1-2)c1ccc(F)cc1 (stereo not drawn) [Compound 33, N-[1-(4-fluorophenyl)ethyl]-9H-pyrimido[5,4-c]tetrazolo[1,5-a][1,5]benzodiazepin-11-amine] | 82 | 42
c1ccc(CCNc2ncc3c(n2)Nc2ccccc2-n2nnnc2-3)nc1 [Compound 98, N-(2-pyridin-2-ylethyl)-9H-pyrimido[5,4-c]tetrazolo[1,5-a][1,5]benzodiazepin-11-amine] | 76 | 41
Clc1ccccc1CNc1ncc2c(n1)Nc1ccccc1-n1nnnc1-2 [Compound 48, N-(2-chlorobenzyl)-9H-pyrimido[5,4-c]tetrazolo[1,5-a][1,5]benzodiazepin-11-amine] | 97 | 51
c1ccc2c(c1)Nc1nc(NC3CCC3)ncc1-c1nnnn1-2 [Compound 85, N-cyclobutyl-9H-pyrimido[5,4-c]tetrazolo[1,5-a][1,5]benzodiazepin-11-amine] | 97 | 99
Fc1ccc(CN2c3ccccc3-n3nnnc3-c3cnc(NCc4ccncc4)nc32)cc1F [Compound 20, 9-(3,4-difluorobenzyl)-N-(pyridin-4-ylmethyl)-9H-pyrimido[5,4-c]tetrazolo[1,5-a][1,5]benzodiazepin-11-amine] | 102 | 102
Fc1ccccc1CNc1ncc2c(n1)Nc1ccccc1-n1nnnc1-2 [Compound 88, N-(2-fluorobenzyl)-9H-pyrimido[5,4-c]tetrazolo[1,5-a][1,5]benzodiazepin-11-amine] | 96 | 41
c1ccc(CNc2ncc3c(n2)Nc2ccccc2-n2nnnc2-3)nc1 [Compound 25, N-(pyridin-2-ylmethyl)-9H-pyrimido[5,4-c]tetrazolo[1,5-a][1,5]benzodiazepin-11-amine] | 97 | 79
CC(C)(C)OC(=O)N1CCN(c2ncc3c(n2)N(Cc2ccc(F)c(F)c2)c2ccccc2-n2nnnc2-3)CC1 [Compound 22, tert-butyl 4-[9-(3,4-difluorobenzyl)-9H-pyrimido[5,4-c]tetrazolo[1,5-a][1,5]benzodiazepin-11-yl]piperazine-1-carboxylate] | 95 | 93
COc1ccc(CNc2ncc3c(n2)Nc2ccccc2-n2nnnc2-3)cc1OC [Compound 57, N-(3,4-dimethoxybenzyl)-9H-pyrimido[5,4-c]tetrazolo[1,5-a][1,5]benzodiazepin-11-amine] | 97 | 39
CC(C)CC(C)Nc1ncc2c(n1)Nc1ccccc1-n1nnnc1-2 (stereo not drawn) [Compound 63, N-(1,3-dimethylbutyl)-9H-pyrimido[5,4-c]tetrazolo[1,5-a][1,5]benzodiazepin-11-amine] | 90 | 32
CCCNc1ncc2c(n1)Nc1ccccc1-n1nnnc1-2 [Compound 41, N-propyl-9H-pyrimido[5,4-c]tetrazolo[1,5-a][1,5]benzodiazepin-11-amine] | 97 | 98
